Source: patent US8598084B2, “Synergistic herbicide/insecticide composition containing certain pyridine carboxylic acids and certain insecticides” (priority 2010, dated 2013)

What was measured:
Test in all cases: Postemergence herbicidal activity of mixtures, greenhouse, visual injury vs control
Format in all cases: in vivo
[1] = system: kochia (Kochia scoparia L; KCHSC)
Protocol: (§1) Evaluation of Postemergence Herbicidal Activity of Mixtures in Cereal Crops
(§2) Seeds of the desired test plant species were planted in Sun Gro MetroMix® 306 planting mixture, which typically has a pH of 6.0 to 6.8 and an organic matter content of about 30 percent, in plastic pots with a surface area of 103.2 square centimeters (cm^2). When required to ensure good germination and healthy plants, a fungicide treatment and/or other chemical or physical treatment was applied. The plants were grown for 7-36 days (d) in a greenhouse with an approximate 14 hour (h) photoperiod which was maintained at about 18° C. during the day and 17° C. during the night. Nutrients and water were added on a regular basis and supplemental lighting was provided with overhead metal halide 1000-Watt lamps as necessary. The plants were employed for testing when they reached the second or third true leaf stage.
(§3) Treatments consisted of an insecticidal compound (as listed in Tables 1 through 18) and the cereal herbicide, 4-amino-3-chloro-6-(4-chloro-2-fluoro-3-methoxyphenyl)pyridine-2-carboxylic acid, alone and in combination. Weighed amounts of esters (methyl) or salts (triethylammonium, TEA) of 4-amino-3-chloro-6-(4-chloro-2-fluoro-3-methoxyphenyl)pyridine-2-carboxylic acid (Compound I) were placed in 25 milliliter (mL) glass vials and dissolved in a volume of 97:3 volume per volume (v/v) acetone/dimethyl sulfoxide (DMSO) to obtain 4.5 milligrams active ingredient per mL (mg ai/mL) concentrated solutions. […] The concentrated solutions of Compound I were diluted to 1.5 mg ai/mL with the addition of 2 volumes of an aqueous mixture containing acetone, water, isopropyl alcohol, DMSO, Agri-dex crop oil concentrate, and Triton® X-77 surfactant in a 64.7:26.0:6.7:2.0:0.7:0.01 v/v ratio. A dilution solution was prepared by mixing 1 volume of 97:3 v/v acetone/DMSO and 2 volumes of an aqueous mixture containing acetone, water, isopropyl alcohol, DMSO, Agri-dex crop oil concentrate, and Triton® X-77 surfactant in a 64.7:26.0:6.7:2.0:0.7:0.01 v/v ratio. Compound requirements are based upon a 12 mL application volume at a rate of 187 liters per hectare (L/ha). The concentrated solutions of the cereal insecticides were prepared following the same procedure. Weighed amounts of insecticide were placed in 25 milliliter (mL) glass vials and dissolved in a volume of 97:3 v/v acetone/DMSO to obtain concentrated insecticide solutions. The concentrated solutions of the safener were prepared following the same procedure. Weighed amounts of safener were placed in 25 mL glass vials and dissolved in a volume of 97:3 v/v acetone/DMSO to obtain concentrated safener solutions. The concentrated solutions were diluted to 0.75 mg/mL with an aqueous mixture of 1.5% v/v of Agri-dex crop oil concentrate.
(§4) Spray solutions of the cereal herbicide and the insecticidal compound mixtures were prepared by adding the concentrated solutions to the appropriate amount of dilution solution to form 12 mL spray solution with active ingredients in combinations. Spray solutions of the cereal herbicide, herbicide safener and the insecticidal compound mixtures were prepared by adding the concentrated solutions to the appropriate amount of dilution solution to form 12 mL spray solution with active ingredients in combinations. Formulated compounds were applied to the plant material with an overhead Mandel track sprayer equipped with 8002E nozzles calibrated to deliver 187 L/ha over an application area of 0.503 square meters (m^2) at a spray height of 18 inches […] above average plant canopy. Control plants were sprayed in the same manner with the solvent blank.
(§5) The treated plants and control plants were placed in a greenhouse as described above and watered by sub-irrigation to prevent wash-off of the test compounds. […]

[2] = system: bird's-eye speedwell (Veronica persica L; VERPE); details: for pest or weed control at 1.25 g/ha: 1.25 g/ha alone;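 for all read-outs here: visual score 0 means no injury and 100 means complete kill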
Protocol: as §1, §2, §3, §4, §5

[3] = system: Russian thistle (Salsola iberica L; SASKR); details: for pest or weed control at 1.25 g/ha: 1.25 g/ha alone
Protocol: as §1, §2, §3, §4, §5

[4] = system: wild pansy (Viola tricolor L; VIOTR); details: for pest or weed control at 1.25 g/ha: 1.25 g/ha alone
Protocol: as §1, §2, §3, §4, §5

[5] = system: scented mayweed (Matricaria chamomila L; MATCH)
Protocol: as §1, §2, §3, §4, §5

[6] = Veronica persica, post-emergence, read-out: Ob (observed injury)
[7] = Salsola tragus, post-emergence, read-out: Ob (observed injury)
[8] = Viola tricolor, post-emergence, read-out: Ob (observed injury)

`CC1(C)[C@H](C(=O)O[C@H](C#N)c2cccc(Oc3ccccc3)c2)[C@@H]1C=C(Br)Br` [Deltamethrin, (S)-cyano(3-phenoxyphenyl)methyl (1R,3R)-3-(2,2-dibromoethenyl)-2,2-dimethylcyclopropanecarboxylate, reference compound] gave a pest or weed control at 1.25 g/ha ([1]; Bassia scoparia, post-emergence, 1.25 g/ha alone, read-out: Ob (observed injury)) of 0%, a pest or weed control at 1.25 g/ha [2, 6] of 0% and a pest or weed control at 1.25 g/ha [3, 7] of 0%. For the same molecule, the pest or weed control at 1.25 g/ha [4, 8] was 0% and the pest or weed control at 1.25 g/ha ([5]; Matricaria, post-emergence, 1.25 g/ha alone, read-out: Ob (observed injury)) was 0%.

In the case of `CNC(=O)CSP(=S)(OC)OC` [Dimethoate, O,O-dimethyl S-[2-(methylamino)-2-oxoethyl]phosphorodithioate, reference compound], the pest or weed control at 170 g/ha ([1]; Bassia scoparia, post-emergence, 170 g/ha alone, read-out: Ob (observed injury)) is reported as 0%, the pest or weed control at 170 g/ha ([2]; Veronica persica, post-emergence, 170 g/ha alone, read-out: Ob (observed injury)) is reported as 0% and the pest or weed control at 170 g/ha ([3]; Salsola tragus, post-emergence, 170 g/ha alone, read-out: Ob (observed injury)) is reported as 0%. The pest or weed control at 170 g/ha ([4]; Viola tricolor, post-emergence, 170 g/ha alone, read-out: Ob (observed injury)) was 0%.

For `CC1(C)[C@H](/C=C(\Cl)C(F)(F)F)[C@@H]1C(=O)O[C@@H](C#N)c1cccc(Oc2ccccc2)c1` (relative stereo) [λ-Cyhalothrin, (R)-cyano(3-phenoxyphenyl)methyl (1S,3S)-rel-3-[(1Z)-2-chloro-3,3,3-trifluoro-1-propenyl]-2,2-dimethylcyclopropanecarboxylate], the pest or weed control at 1.25 g/ha [2, 6] was 0%, the pest or weed control at 1.25 g/ha [3, 7] was 0% and the pest or weed control at 1.25 g/ha [4, 8] was 0%.

With `Cc1c(COC(=O)[C@@H]2[C@H](/C=C(\Cl)C(F)(F)F)C2(C)C)cccc1-c1ccccc1` (relative stereo) [Bifenthrin, (2-methyl[1,1′-biphenyl]-3-yl)methyl (1R,3R)-rel-3-[(1Z)-2-chloro-3,3,3-trifluoro-1-propenyl]-2,2-dimethylcyclopropanecarboxylate, reference compound] the pest or weed control at 1.6 g/ha ([2]; Veronica persica, post-emergence, 1.6 g/ha alone, read-out: Ob (observed injury)) was 0%, the pest or weed control at 1.6 g/ha ([3]; Salsola tragus, post-emergence, 1.6 g/ha alone, read-out: Ob (observed injury)) was 0% and the pest or weed control at 1.6 g/ha ([4]; Viola tricolor, post-emergence, 1.6 g/ha alone, read-out: Ob (observed injury)) was 0%. It also gave a pest or weed control at 1.6 g/ha ([5]; Matricaria, post-emergence, 1.6 g/ha alone, read-out: Ob (observed injury)) of 0%.

With `CCOP(=S)(OCC)Oc1nc(Cl)c(Cl)cc1Cl` [Chlorpyrifos, O,O-diethyl O-(3,5,6-trichloro-2-pyridinyl) phosphorothioate, reference compound] the pest or weed control at 60 g/ha ([1]; Bassia scoparia, post-emergence, 60 g/ha alone, read-out: Ob (observed injury)) was 0%, the pest or weed control at 60 g/ha ([2]; Veronica persica, post-emergence, 60 g/ha alone, read-out: Ob (observed injury)) was 0% and the pest or weed control at 60 g/ha ([3]; Salsola tragus, post-emergence, 60 g/ha alone, read-out: Ob (observed injury)) was 0%. The pest or weed control at 60 g/ha ([4]; Viola tricolor, post-emergence, 60 g/ha alone, read-out: Ob (observed injury)) was 0% and the pest or weed control at 60 g/ha ([5]; Matricaria, post-emergence, 60 g/ha alone, read-out: Ob (observed injury)) was 0%.

Work on `Cc1nc(N(C)C)nc(OC(=O)N(C)C)c1C` [Pirimicarb, 2-(dimethylamino)-5,6-dimethyl-4-pyrimidinyl dimethylcarbamate, reference compound] yielded a pest or weed control at 35 g/ha ([1]; Bassia scoparia, post-emergence, 35 g/ha alone, read-out: Ob (observed injury)) of 0%, a pest or weed control at 35 g/ha ([2]; Veronica persica, post-emergence, 35 g/ha alone, read-out: Ob (observed injury)) of 0% and a pest or weed control at 35 g/ha ([3]; Salsola tragus, post-emergence, 35 g/ha alone, read-out: Ob (observed injury)) of 0%. The pest or weed control at 35 g/ha ([4]; Viola tricolor, post-emergence, 35 g/ha alone, read-out: Ob (observed injury)) was 0% and the pest or weed control at 35 g/ha ([5]; Matricaria, post-emergence, 35 g/ha alone, read-out: Ob (observed injury)) was 0%.

`CC1(C)C(C=C(Cl)Cl)C1C(=O)OC(C#N)c1ccc(F)c(Oc2ccccc2)c1` (stereo not drawn) [Cyfluthrin, cyano(4-fluoro-3-phenoxyphenyl)methyl 3-(2,2-dichloroethenyl)-2,2-dimethylcyclopropanecarboxylate, reference compound] showed a pest or weed control at 3.75 g/ha ([1]; Bassia scoparia, post-emergence, 3.75 g/ha alone, read-out: Ob (observed injury)) of 0%, a pest or weed control at 3.75 g/ha ([3]; Salsola tragus, post-emergence, 3.75 g/ha alone, read-out: Ob (observed injury)) of 0% and a pest or weed control at 3.75 g/ha ([4]; Viola tricolor, post-emergence, 3.75 g/ha alone, read-out: Ob (observed injury)) of 0%. It also gave a pest or weed control at 3.75 g/ha ([5]; Matricaria, post-emergence, 3.75 g/ha alone, read-out: Ob (observed injury)) of 0%.

`CCN(CC)CC.COc1c(Cl)ccc(-c2cc(N)c(Cl)c(C(=O)O)n2)c1F` [Compound I TEA salt] was tested, and the “Ob (observed injury)” value ([1]; 8.75 g/ha alone) was 40%, the “Ob (observed injury)” value ([1]; 17.5 g/ha alone) was 55% and the “Ob (observed injury)” value ([1]; 35 g/ha alone) was 65%. For the same molecule, the “Ob (observed injury)” value ([2]; 8.75 g/ha alone) was 10%, the “Ob (observed injury)” value ([2]; 17.5 g/ha alone) was 40% and the “Ob (observed injury)” value ([2]; 35 g/ha alone) was 70%. The “Ob (observed injury)” value ([3]; 8.75 g/ha alone) was 80%, the “Ob (observed injury)” value ([3]; 17.5 g/ha alone) was 84% and the “Ob (observed injury)” value ([3]; 35 g/ha alone) was 86%. The “Ob (observed injury)” value ([4]; 8.75 g/ha alone) was 23%, the “Ob (observed injury)” value ([4]; 17.5 g/ha alone) was 40% and the “Ob (observed injury)” value ([4]; 35 g/ha alone) was 47%. For the same molecule, the “Ob (observed injury)” value ([5]; 8.75 g/ha alone) was 40%, the “Ob (observed injury)” value ([5]; 17.5 g/ha alone) was 67% and the “Ob (observed injury)” value ([5]; 35 g/ha alone) was 73%.

`N#CCNC(=O)c1cnccc1C(F)(F)F` [Flonicamid, N-(cyanomethyl)-4-(trifluoromethyl)-3-pyridinecarboxamide] showed a pest or weed control at 17.5 g/ha ([3]; Salsola tragus, post-emergence, 17.5 g/ha alone, read-out: Ob (observed injury)) of 0%, a pest or weed control at 17.5 g/ha ([4]; Viola tricolor, post-emergence, 17.5 g/ha alone, read-out: Ob (observed injury)) of 0% and a pest or weed control at 17.5 g/ha ([5]; Matricaria, post-emergence, 17.5 g/ha alone, read-out: Ob (observed injury)) of 0%.
